Molecular target: T1, human GR (Homo sapiens, UniProt P04150)
T1 sequence (P04150 1-777): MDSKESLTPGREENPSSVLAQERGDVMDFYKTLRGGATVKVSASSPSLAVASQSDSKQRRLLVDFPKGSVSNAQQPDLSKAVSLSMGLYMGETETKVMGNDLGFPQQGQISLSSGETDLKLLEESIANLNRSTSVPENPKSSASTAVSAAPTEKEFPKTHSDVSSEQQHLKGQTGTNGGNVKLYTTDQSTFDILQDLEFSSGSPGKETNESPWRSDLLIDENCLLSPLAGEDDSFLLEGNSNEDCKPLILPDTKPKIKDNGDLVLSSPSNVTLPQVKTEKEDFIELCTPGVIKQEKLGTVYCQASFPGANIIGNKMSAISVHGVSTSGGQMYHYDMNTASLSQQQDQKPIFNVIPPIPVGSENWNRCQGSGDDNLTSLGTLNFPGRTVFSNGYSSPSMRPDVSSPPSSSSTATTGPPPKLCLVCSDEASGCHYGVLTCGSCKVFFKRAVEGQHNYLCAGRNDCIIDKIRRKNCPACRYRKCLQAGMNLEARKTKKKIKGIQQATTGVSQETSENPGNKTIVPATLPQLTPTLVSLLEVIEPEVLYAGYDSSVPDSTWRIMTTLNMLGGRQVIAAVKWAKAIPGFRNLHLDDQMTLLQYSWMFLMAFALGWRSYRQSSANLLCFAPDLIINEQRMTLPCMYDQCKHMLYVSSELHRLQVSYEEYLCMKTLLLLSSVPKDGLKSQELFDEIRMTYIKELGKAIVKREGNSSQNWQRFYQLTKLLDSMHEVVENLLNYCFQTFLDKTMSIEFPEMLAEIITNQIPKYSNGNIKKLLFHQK
Assay: Trans-Activation Modulation of Glucocorticoid Receptor (GRAMMER), MMTV-LUC reporter, agonist mode
Assay type: cell-based
Set-up: endogenous in cells
Conditions: for Emax: A549, A549 cells, maximum activity, read-out: Transactivation A549 Cells GRAMMER Emax; for EC50: A549 cells, inflection point, read-out: Transactivation A549 Cells GRAMMER IP
From the text: This assay assesses the ability of test compounds to control transcription from the MMTV-LUC reporter gene in lung adenocarcinoma A549 cells or MDA-MB-453 cells, a human breast cancer cell line that naturally expresses the human GR. The assay measures induction of a modified MMTV LTR/promoter linked to the LUC reporter gene.
The routine transient assay consists of plating 7,000-25,000 cells/well of a white, clear-bottom 96-well plate. Alternatively, 384-well plates can be used at a cell concentration of 10,000/well. The media that the cells are plated in is “exponential growth medium” which consists of phenol red-free RPMI1640 containing 10% FBS, 4 mM L-glutamine, 20 mM HEPES, 10 ug/mL human insulin, and 20 ug/mL gentamicin. Incubator conditions are 37° C. and 5% CO2. The transfection is done in batch mode. The cells are trypsinized and counted to the right cell number in the proper amount of fresh media. It is then gently mixed with the FuGene6/DNA mix and plated onto the 96 or 384-well plate, all the wells receive 100 uL or 40 uL, respectively, of medium+lipid/DNA complex then incubated 37° C. overnight. The transfection cocktail consists of serum-free OptiMEM, FuGene6 reagent and DNA. The manufacturer's (Roche Biochemical) protocol for cocktail setup is as follows: The lipid to DNA ratio is approximately 2.5:1 and the incubation time is 20 min at room temperature. Sixteen to 24 hours after transfection, the cells are treated with dexamethasone to a final concentration of 10 nM as well as the compound of interest, such that final DMSO (vehicle) concentration is equal to or less than 1%. Each plate also contains samples that are treated with 10 nM dexamethasone alone, which is used as the 100% activity control. The cells are exposed to the compounds for 24 hours. After 24 hours, the cells are lysed by a Promega cell culture lysis buffer for approximately 30 min and then the luciferase activity in the extracts is assayed in the 96-well format luminometer. In 384-well format, Steady-Glo (Promega) or Steady-Lite (PerkinElmer) can be used by adding an equal volume of reagent to the media present in each well. Activity induced by 10 nM dexamethasone alone is set at 100% activity. Antagonist activity is calculated by determining the decrease in dexamethasone-induced activity in response to compound treatment relative to samples that were treated with dexamethasone alone. […] This transactivation assay can be performed in an agonist and antagonist mode to identify these different activities.

| SMILES | Emax [%] | EC50 [nM] |
| --- | --- | --- |
| C[C@]12Cc3cnn(-c4ccc(F)cc4)c3C=C1CC[C@@H]2CN(CC=O)S(=O)(=O)c1ccccc1F [Example 158, 2-fluoro-N-{[(4αR,5S)-1-(4-fluorophenyl)-4α-methyl-1,4,4α,5,6,7-hexahydrocyclopenta[f]indazol-5-yl]methyl}-N-(2-oxoethyl)benzenesulfonamide] | 36.2 | 747 |
| C[C@]12Cc3cnn(-c4ccc(F)cc4)c3C=C1CC[C@@H]2CN(CCc1ccccc1F)S(=O)(=O)Cc1ccccc1C(F)(F)F [Example 108, N-[2-(2-fluorophenyl)ethyl]-N-{[(4αR,5S)-1-(4-fluorophenyl)-4α-methyl-1,4,4α,5,6,7-hexahydrocyclopenta[f]indazol-5-yl]methyl}-1-[2-(trifluoromethyl)phenyl]methanesulfonamide] | 46 | 521 |
| C[C@]12Cc3cnn(-c4ccc(F)cc4)c3C=C1CC[C@@H]2CN(CC(O)c1ccncc1)S(=O)(=O)CC(F)(F)F (stereo partly drawn) [Example 144, 2,2,2-trifluoro-N-{[(4αR,5S)-1-(4-fluorophenyl)-4α-methyl-1,4,4α,5,6,7-hexahydrocyclopenta[f]indazol-5-yl]methyl}-N-(2-hydroxy-2-pyridin-4-ylethyl)ethanesulfonamide] | 73.6 | 397 |
| COc1ccccc1CCN(C[C@H]1CCC2=Cc3c(cnn3-c3ccc(F)cc3)C[C@@]21C)S(=O)(=O)Cc1cccnc1 [Example 125, N-{[(4αR,5S)-1-(4-fluorophenyl)-4α-methyl-1,4,4α,5,6,7-hexahydrocyclopenta[f]indazol-5-yl]methyl}-N-[2-(2-methoxyphenyl)ethyl]-1-pyridin-3-ylmethanesulfonamide] | 21.2 | 508 |
| Cc1noc(C)c1S(=O)(=O)NC[C@H]1CCC2=Cc3c(cnn3-c3ccc(F)cc3)C[C@@]21C [Example 161, N-{[(4αR,5S)-1-(4-fluorophenyl)-4α-methyl-1,4,4α,5,6,7-hexahydrocyclopenta[f]indazol-5-yl]methyl}-3,5-dimethylisoxazole-4-sulfonamide] | 18.3 | 419 |
| Cc1nn(C)c(Cl)c1S(=O)(=O)N(CC1CC1)C[C@H]1CCC2=Cc3c(cnn3-c3ccc(F)cc3)C[C@@]21C [Example 7] | 36.3 | 351 |
| C[C@]12Cc3cnn(-c4ccc(F)cc4)c3C=C1CC[C@@H]2CN(CCc1ccccc1F)S(=O)(=O)Cc1cccc(Cl)c1 [Example 106, 1-(3-chlorophenyl)-N-[2-(2-fluorophenyl)ethyl]-N-{[(4αR,5S)-1-(4-fluorophenyl)-4α-methyl-1,4,4α,5,6,7-hexahydrocyclopenta[f]indazol-5-yl]methyl}methanesulfonamide] | 82.8 | 328 |
| CCCCCc1ccc(S(=O)(=O)N(CC2CC2)C[C@H]2CCC3=Cc4c(cnn4-c4ccc(F)cc4)C[C@@]32C)cc1 [Example 9, N-(cyclopropylmethyl)-N-{[(4αR,5S)-1-(4-fluorophenyl)-4α-methyl-1,4,4α,5,6,7-hexahydrocyclopenta[f]indazol-5-yl]methyl}-4-pentylbenzenesulfonamide] | 12.7 | 1130 |

Molecules with a lower EC50, results first:

| Emax [%] | EC50 [nM] | SMILES |
| --- | --- | --- |
| 37.8 | 306 | C[C@]12Cc3cnn(-c4ccc(F)cc4)c3C=C1CC[C@@H]2CN(CCc1ccccn1)S(=O)(=O)Cc1ccccn1 [Example 165, N-{[(4αR,5S)-1-(4-fluorophenyl)-4α-methyl-1,4,4α,5,6,7-hexahydrocyclopenta[f]indazol-5-yl]methyl}-1-pyridin-2-yl-N-(2-pyridin-2-ylethyl)methanesulfonamide] |
| 91.5 | 263 | CC(CN(C[C@H]1CCC2=Cc3c(cnn3-c3ccc(F)cc3)C[C@@]21C)S(=O)(=O)CC(F)(F)F)c1cccnc1 (stereo partly drawn) [Example 146, 2,2,2-trifluoro-N-{[(4αR,5S)-1-(4-fluorophenyl)-4α-methyl-1,4,4α,5,6,7-hexahydrocyclopenta[f]indazol-5-yl]methyl}-N-(2-pyridin-3-ylpropyl)ethanesulfonamide] |
| 15.9 | 242 | C[C@]12Cc3cnn(-c4ccc(F)cc4)c3C=C1CC[C@@H]2CN(CCc1ccccc1F)S(=O)(=O)CCN1C(=O)c2ccccc2C1=O [Example 121, 2-(1,3-dioxo-1,3-dihydro-2H-isoindol-2-yl)-N-[2-(2-fluorophenyl)ethyl]-N-{[(4αR,5S)-1-(4-fluorophenyl)-4α-methyl-1,4,4α,5,6,7-hexahydrocyclopenta[f]indazol-5-yl]methyl}ethanesulfonamide] |
| 66 | 235 | Cc1noc(C)c1S(=O)(=O)N(CC1CC1)C[C@H]1CCC2=Cc3c(cnn3-c3ccc(F)cc3)C[C@@]21C [Example 11, N-(cyclopropylmethyl)-N-{[(4αR,5S)-1-(4-fluorophenyl)-4α-methyl-1,4,4α,5,6,7-hexahydrocyclopenta[f]indazol-5-yl]methyl}-3,5-dimethylisoxazole-4-sulfonamide] |
| 65.4 | 195 | Cc1noc(C)c1S(=O)(=O)N(CCc1ccccc1O)C[C@H]1CCC2=Cc3c(cnn3-c3ccc(F)cc3)C[C@@]21C [Example 123, N-{[(4αR,5S)-1-(4-fluorophenyl)-4α-methyl-1,4,4α,5,6,7-hexahydrocyclopenta[f]indazol-5-yl]methyl}-N-[2-(2-hydroxyphenyl)ethyl]-3,5-dimethylisoxazole-4-sulfonamide] |
| 73.6 | 143 | C[C@]12Cc3cnn(-c4ccccc4)c3C=C1CC[C@@H]2CN(CCc1ccccc1F)S(=O)(=O)CC(F)(F)F [Example 137, 2,2,2-trifluoro-N-[2-(2-fluorophenyl)ethyl]-N-{[(4αR,5S)-4α-methyl-1-phenyl-1,4,4α,5,6,7-hexahydrocyclopenta[f]indazol-5-yl]methyl}ethanesulfonamide] |
| 48.1 | 123 | Cc1noc(C)c1S(=O)(=O)N(C[C@H]1CCC2=Cc3c(cnn3-c3ccc(F)cc3)C[C@@]21C)C[C@@H](C)O [Example 168, N-{[(4αR,5S)-1-(4-fluorophenyl)-4α-methyl-1,4,4α,5,6,7-hexahydrocyclopenta[f]indazol-5-yl]methyl}-N-[(2R)-2-hydroxypropyl]-3,5-dimethylisoxazole-4-sulfonamide] |
| 73.2 | 110 | COc1ccccc1CCN(C[C@H]1CCC2=Cc3c(cnn3-c3ccc(F)cc3)C[C@@]21C)S(=O)(=O)CC(F)(F)F [Example 120, 2,2,2-trifluoro-N-{[(4αR,5S)-1-(4-fluorophenyl)-4α-methyl-1,4,4α,5,6,7-hexahydrocyclopenta[f]indazol-5-yl]methyl}-N-[2-(2-methoxyphenyl)ethyl]ethanesulfonamide] |
| 2 | 63.9 | C[C@]12Cc3cnn(-c4ccc(F)cc4)c3C=C1CC[C@@H]2CN(CCc1ccccn1)S(=O)(=O)CCN1C(=O)c2ccccc2C1=O [Example 152, 2-(1,3-dioxo-1,3-dihydro-2H-isoindol-2-yl)-N-{[(4αR,5S)-1-(4-fluorophenyl)-4α-methyl-1,4,4α,5,6,7-hexahydrocyclopenta[f]indazol-5-yl]methyl}-N-(2-pyridin-2-ylethyl)ethanesulfonamide] |

— patent publication US8299048B2, “Hexahydrocyclopentyl[f]indazole sulfonamides and derivatives thereof as selective glucocorticoid receptor modulators” (Merck Sharp & Dohme Corp., priority 2008, dated 2012)
